Measured values reported in US9434734B2, “Substituted pyrazoloquinazolinones and pyrroloquinazolinones as allosteric modulators of group II metabotropic glutamate receptors” (Domain Therapeutics, priority 2012, dated 2016).

Legend:
human mGluR3 (hmGluR3) = human mGluR3 (hmGluR3) (Homo sapiens, UniProt Q14832); test: mGluR3 negative allosteric modulator activity; assay type: cell-based
[1] = molecular target: T1, human mGluR2 (hmGluR2) transiently over-expressed in HEK-293 cells (Homo sapiens, UniProt Q14416); test: Human mGluR2 negative allosteric modulator evaluation using Ca++ functional assay (agonist and NAM activity); assay type: cell-based; details: hmGluR2 in HEK-293 cells, EC80 glutamate, Fluo4AM calcium readout; read-out: mGluR2 negative allosteric modulator activity IC50
T1 construct: expressed in transfected cells; host or cells: HEK-293 cells, transient co-transfection by electroporation
T1 sequence (Q14416 19-872): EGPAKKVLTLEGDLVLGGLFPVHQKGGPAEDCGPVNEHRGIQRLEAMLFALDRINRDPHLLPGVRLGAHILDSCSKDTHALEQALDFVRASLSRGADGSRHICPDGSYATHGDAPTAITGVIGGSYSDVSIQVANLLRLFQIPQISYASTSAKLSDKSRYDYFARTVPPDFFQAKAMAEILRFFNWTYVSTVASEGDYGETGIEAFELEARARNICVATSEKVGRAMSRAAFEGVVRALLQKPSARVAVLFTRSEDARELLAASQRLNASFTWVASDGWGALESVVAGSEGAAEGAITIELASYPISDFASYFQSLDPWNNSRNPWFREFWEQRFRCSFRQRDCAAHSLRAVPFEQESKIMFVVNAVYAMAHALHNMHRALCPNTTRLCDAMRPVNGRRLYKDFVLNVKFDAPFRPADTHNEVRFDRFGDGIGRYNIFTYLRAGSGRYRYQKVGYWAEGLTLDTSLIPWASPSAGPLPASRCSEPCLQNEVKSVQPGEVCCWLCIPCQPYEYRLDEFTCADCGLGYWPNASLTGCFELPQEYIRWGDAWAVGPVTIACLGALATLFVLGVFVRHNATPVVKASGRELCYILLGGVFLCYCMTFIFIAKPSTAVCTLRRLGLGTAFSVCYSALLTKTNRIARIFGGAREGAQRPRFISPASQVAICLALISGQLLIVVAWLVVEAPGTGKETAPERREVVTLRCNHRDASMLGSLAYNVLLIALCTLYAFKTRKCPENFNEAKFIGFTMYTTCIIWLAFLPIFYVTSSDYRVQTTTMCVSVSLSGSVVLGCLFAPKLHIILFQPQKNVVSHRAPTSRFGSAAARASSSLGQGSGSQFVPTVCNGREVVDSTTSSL
How it was run: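 Compound alone (agonist mode) was followed on the same plate by EC80 glutamate (NAM mode), with fluorescence read 60 s. Eight-point curves, variable-slope fit, duplicate, two independent runs.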

Sequence of human mGluR3 (hmGluR3) (Q14832 23-879): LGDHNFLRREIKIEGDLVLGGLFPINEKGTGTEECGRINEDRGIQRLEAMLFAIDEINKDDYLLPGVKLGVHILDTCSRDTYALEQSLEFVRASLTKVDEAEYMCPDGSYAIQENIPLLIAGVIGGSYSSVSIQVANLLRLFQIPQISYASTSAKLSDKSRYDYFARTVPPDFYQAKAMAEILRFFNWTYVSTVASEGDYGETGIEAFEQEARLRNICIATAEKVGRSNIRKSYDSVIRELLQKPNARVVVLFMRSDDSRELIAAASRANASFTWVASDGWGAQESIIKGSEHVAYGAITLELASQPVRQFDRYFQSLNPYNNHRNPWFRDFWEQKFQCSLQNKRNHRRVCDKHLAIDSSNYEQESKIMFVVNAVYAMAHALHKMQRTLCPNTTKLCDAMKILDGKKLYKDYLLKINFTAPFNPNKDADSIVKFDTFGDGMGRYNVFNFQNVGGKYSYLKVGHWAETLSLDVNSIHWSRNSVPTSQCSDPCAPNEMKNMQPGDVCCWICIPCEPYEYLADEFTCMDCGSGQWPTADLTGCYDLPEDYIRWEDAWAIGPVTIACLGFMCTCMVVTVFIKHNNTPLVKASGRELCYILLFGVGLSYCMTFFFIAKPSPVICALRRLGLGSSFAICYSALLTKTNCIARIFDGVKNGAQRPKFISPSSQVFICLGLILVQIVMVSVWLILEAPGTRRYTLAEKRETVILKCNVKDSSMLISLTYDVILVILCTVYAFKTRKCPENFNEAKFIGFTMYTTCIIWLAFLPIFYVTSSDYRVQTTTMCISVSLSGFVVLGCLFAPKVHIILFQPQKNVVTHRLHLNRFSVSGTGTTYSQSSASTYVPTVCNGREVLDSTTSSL

SMILES | IC50 (human mGluR3 (hmGluR3)) [nM] | melting point [°C] | IC50 [1] [nM]
CCn1c(=O)c2ccc(-c3ccc(N)nc3)cc2n2nc(C3CCCC3)cc12.Cl [Example 69, 8-(6-Amino-pyridin-3-yl)-2-cyclopentyl-4-ethyl-4H-pyrazolo[1,5-a]quinazolin-5-one] | < 1000 | > 250 | < 1000
Cc1cc(-c2ccc3c(=O)n(C)c4cc(-c5cnn(C)c5)nn4c3c2)cc(C)n1.Cl [Example 130, 8-(2,6-Dimethyl-pyridin-4-yl)-4-methyl-2-(1-methyl-1H-pyrazol-4-yl)-4H-pyrazolo[1,5-a]quinazolin-5-one] |  | > 250 | < 1000
Cc1cc(-c2ccc3c(=O)n(C)c4cc(C5CCOCC5)nn4c3c2)cc(C)n1.Cl [Example 97, 8-(2,6-Dimethyl-pyridin-4-yl)-4-methyl-2-(tetrahydro-pyran-4-yl)-4H-pyrazolo[1,5-a]quinazolin-5-one] |  | > 250 | < 1000
Cn1c(=O)c2ccc(-c3cc[nH]n3)cc2n2nc(-c3ccccc3)cc12 [Example 17, 4-Methyl-2-phenyl-8-(1H-pyrazol-3-yl)-4H-pyrazolo[1,5-a]quinazolin-5-one] |  | 245 to 249 | < 1000
Cc1cc(N)ncc1-c1ccc2c(=O)n(C)c3cc(-c4ccccc4)nn3c2c1.Cl [Example 24, 8-(6-Amino-4-methyl-pyridin-3-yl)-4-methyl-2-phenyl-4H-pyrazolo[1,5-a]quinazolin-5-one] |  | 235 to 240 | < 1000
Cc1nc(N)ccc1-c1ccc2c(=O)n(C)c3cc(-c4ccccc4)nn3c2c1.Cl [Example 25, 8-(6-Amino-2-methyl-pyridin-3-yl)-4-methyl-2-phenyl-4H-pyrazolo[1,5-a]quinazolin-5-one] |  | 218 to 220 | < 1000
CCCn1c(=O)c2ccc(-c3ccc(N)nc3)cc2n2nc(-c3ccccc3)cc12.Cl [Example 44, 8-(6-Amino-pyridin-3-yl)-2-phenyl-4-propyl-4H-pyrazolo[1,5-a]quinazolin-5-one] |  | > 250 | < 1000
Cn1c(=O)c2ccc(-c3ccc(N)cc3)cc2n2nc(-c3ccccc3)cc12 [Example 3, 8-(4-Amino-phenyl)-4-methyl-2-phenyl-4H-pyrazolo[1,5-a]quinazolin-5-one] |  | 173 to 175 | < 1000
Cl.Cn1c(=O)c2ccc(-c3ccc(N)nc3)cc2n2nc(C3CCCC3)cc12 [Example 65, 8-(6-Amino-pyridin-3-yl)-2-cyclopentyl-4-methyl-4H-pyrazolo[1,5-a]quinazolin-5-one] |  | > 250 | < 1000
Cn1cc(-c2ccc3c(=O)n(C)c4cc(-c5ccccc5)nn4c3c2)cn1 [Example 16, 4-Methyl-8-(1-methyl-1H-pyrazol-4-yl)-2-phenyl-4H-pyrazolo[1,5-a]quinazolin-5-one] |  | > 250 | < 1000
Cl.Cn1c(=O)c2ccc(-c3ccc(N)nc3)cc2n2nc(-c3ccnc(C(F)(F)F)c3)cc12 [Example 136, 8-(6-Amino-pyridin-3-yl)-4-methyl-2-(2-trifluoromethyl-pyridin-4-yl)-4H-pyrazolo[1,5-a]quinazolin-5-one] |  | > 250 | < 1000

Continued, values first:

IC50 (human mGluR3 (hmGluR3)) [nM] | melting point [°C] | IC50 [1] [nM] | SMILES
< 1000 | > 250 | < 1000 | Cn1c(=O)c2ccc(-c3cccc(C(=O)O)c3)cc2n2nc(-c3ccccc3)cc12 [Example 34, 3-(4-Methyl-5-oxo-2-phenyl-4,5-dihydro-pyrazolo[1,5-a]quinazolin-8-yl)-benzoic Acid]
 | > 250 | < 1000 | Cn1c(=O)c2ccc(-c3ccnc(F)c3)cc2n2nc(-c3ccnc(C(F)(F)F)c3)cc12 [Example 140, 8-(2-Fluoro-pyridin-4-yl)-4-methyl-2-(2-trifluoromethyl-pyridin-4-yl)-4H-pyrazolo[1,5-a]quinazolin-5-one]
 | > 250 | < 1000 | Cn1c(=O)c2ccc(-c3ccnc(C(F)(F)F)c3)cc2n2nc(-c3ccnc(C(F)(F)F)c3)cc12 [Example 139, 4-Methyl-2,8-bis-(2-trifluoromethyl-pyridin-4-yl)-4H-pyrazolo[1,5-a]quinazolin-5-one]
 | 210 to 216 | < 1000 | Cn1c(=O)c2ccc(-c3cccc(C#N)c3)cc2n2nc(C3CCOCC3)cc12 [Example 88, 3-[4-Methyl-5-oxo-2-(tetrahydro-pyran-4-yl)-4,5-dihydro-pyrazolo[1,5-a]quinazolin-8-yl]-benzonitrile]
 | > 250 | < 1000 | Cc1cc(-c2ccc3c(=O)n(C)c4cc(C5CCCCCC5)nn4c3c2)cc(C)n1.Cl [Example 77, 2-Cycloheptyl-8-(2,6-dimethyl-pyridin-4-yl)-4-methyl-4H-pyrazolo[1,5-a]quinazolin-5-one]
 | 174 to 176 | < 1000 | Cc1n[nH]cc1-c1ccc2c(=O)n(C)c3cc(-c4ccccc4)nn3c2c1 [Example 18, 4-Methyl-8-(3-methyl-1H-pyrazol-4-yl)-2-phenyl-4H-pyrazolo[1,5-a]quinazolin-5-one]
 | > 250 | < 1000 | Cl.Cn1c(=O)c2ccc(-c3ccc(N)nc3)cc2n2nc(-c3ccc(F)cc3)cc12 [Example 80, 8-(6-Amino-pyridin-3-yl)-2-(4-fluoro-phenyl)-4-methyl-4H-pyrazolo[1,5-a]quinazolin-5-one]
 | > 250 | < 1000 | Cn1c(=O)c2ccc(-c3c[nH]nc3C(F)(F)F)cc2n2nc(-c3ccccc3)cc12 [Example 19, 4-Methyl-2-phenyl-8-(3-trifluoromethyl-1H-pyrazol-4-yl)-4H-pyrazolo[1,5-a]quinazolin-5-one]
 | 226 to 227 | < 1000 | Cc1cc(-c2ccc3c(=O)n(C)c4cc(-c5ccccc5)nn4c3c2)cnc1N.Cl [Example 26, 8-(6-Amino-5-methyl-pyridin-3-yl)-4-methyl-2-phenyl-4H-pyrazolo[1,5-a]quinazolin-5-one]
 | 227 to 230 | < 1000 | Cl.Nc1ccc(-c2ccc3c(=O)n(CC(F)(F)F)c4cc(-c5ccccc5)nn4c3c2)cn1 [Example 45, 8-(6-Amino-pyridin-3-yl)-2-phenyl-4-(2,2,2-trifluoro-ethyl)-4H-pyrazolo[1,5-a]quinazolin-5-one]
 | > 250 | < 1000 | Cl.Cn1c(=O)c2ccc(-c3ccc(N)nc3)cc2n2nc(C3CCOCC3)cc12 [Example 86, 8-(6-Amino-pyridin-3-yl)-4-methyl-2-(tetrahydro-pyran-4-yl)-4H-pyrazolo[1,5-a]quinazolin-5-one]
 | 222 to 225 | < 1000 | Cn1c(=O)c2ccc(-c3cnco3)cc2n2nc(-c3ccccc3)cc12 [Example 21, 4-Methyl-8-oxazol-5-yl-2-phenyl-4H-pyrazolo[1,5-a]quinazolin-5-one]
 | > 250 | < 1000 | Cn1cc(-c2ccc3c(=O)n(C)c4cc(-c5cccnc5)nn4c3c2)cn1 [Example 85, 4-Methyl-8-(1-methyl-1H-pyrazol-4-yl)-2-pyridin-3-yl-4H-pyrazolo[1,5-a]quinazolin-5-one]
 | 198 to 202 | < 1000 | COCCc1cc2n(C)c(=O)c3ccc(-c4ccc(N)nc4)cc3n2n1.Cl [Example 53, 8-(6-Amino-pyridin-3-yl)-2-(2-methoxy-ethyl)-4-methyl-4H-pyrazolo[1,5-a]quinazolin-5-one]
 | > 250 | < 1000 | Cl.Cn1c(=O)c2ccc(-c3ccc(N)nc3)cc2n2nc(C3CCC3)cc12 [Example 64, 8-(6-Amino-pyridin-3-yl)-2-cyclobutyl-4-methyl-4H-pyrazolo[1,5-a]quinazolin-5-one]
 | > 250 | < 1000 | Cc1cc(-c2cc3n(C)c(=O)c4ccc(-c5ccccc5)cc4n3n2)cc(C)n1.Cl [Example 115, 2-(2,6-Dimethyl-pyridin-4-yl)-4-methyl-8-phenyl-4H-pyrazolo[1,5-a]quinazolin-5-one]
